Laboratory results published in patent US10449223B2, “Use of dehydroeburicoic acid from Antrodia camphorata in the treatment or prevention of diabetes and hyperlipidemia” (priority 2016, dated 2019).

How the values were obtained:
[1] = test system: GLUT4; test: Western blotting: membrane GLUT4 in skeletal muscle of mice; conditions: STZ-induced diabetic mice, 28 days
Method: (§6) The study protocol was performed as previously described.^28 Diabetes was induced by intraperitoneal injection of streptozotocin (Sigma Chemical, St. Louis, Mo., USA) for 5 consecutive days. The dosage of STZ was 55 mg/kg (dissolved in 0.05 M cold sodium citrate buffer, pH 4.5). The normal control mice received only citrate buffer of the same volume.
(§7) During the experiment, all mice were fasted overnight, and blood was collected from the retro-orbital sinus. After dosing for 4 weeks, food was removed from the mice at night, and on the next day, the mice after 12 h of fasting were sacrificed. All of the individual tissues were collected and weighed, and parts of tissues were instantly frozen at −80° C. for later target gene analysis.
(§8) PPARα, PPARγ, and FAS proteins were performed by the liver and white adipose tissue of mice. Skeletal muscle from mice was subjected to GLUT4 expression level analysis, and the total membrane fractions were collected with buffer and determined using a described procedure. The protein contents of GLUT4, phospho-AMPK, and total AMPK were detected by Western blotting and determined as described.

[2] = test system: SREBP1c; test: Semiquantitative RT-PCR, liver tissue: SREBP1c mRNA; assay type: in vivo, C57BL/6J mice; conditions: STZ-induced diabetic mice, 28 days, relative to CON group (so in the source)
Method: (§1) Total RNA from liver tissue was isolated with a Trizol Reagent (Molecular Research Center, Inc., Cincinnati, Ohio) according to the manufacturer's directions. The integrity of the extracted total RNA was examined by 2% agarose gel electrophoresis, and the RNA concentration was determined by the ultraviolet (UV) light absorbency at 260 nm and 280 nm (Spectrophotometer U-2800A, Hitachi). Total RNA (1 μg) was reverse transcribed to cDNA in a reaction mixture containing buffer, and 5 μL Moloney murine leukemia virus reverse transcriptase (Epicentre, Madison, Wis., USA). The polymerase chain reaction (PCR) was performed in a final 25 μL containing 1 U Blend Taq-Plus (TOYOBO, Japan), 1 μL of the RT first-strand cDNA product, 10 μM of each forward (F) and reverse (R) primer, 75 mM Tris-HCl (pH 8.3) containing 1 mg/L Tween 20, 2.5 mM dNTP, and 2 mM MgCl2. The products were run on 2% agarose gels and stained with ethidium bromide.

[3] = test system: Akt; test: phospho-Akt (Ser473)/total Akt in C2C12 myotube cells (Western blot); assay type: cell-based; conditions: 30 min
Method: (§2) C2C12 skeletal myoblasts (ATCC, CRL-1772) were maintained in growth media consisting of Dulbecco's modified Eagle's medium (DMEM) (Gibco BRL) supplemented with 10% fetal bovine serum (FBS) (Hyclone) and 100 U/mL penicillin/100 μg/mL streptomycin (Gibco BRL) and split 1:4 using 0.05% trypsin when 80% confluent. Myoblasts were diluted and placed in a 9 cm dish. Cells were cultured to achieve 80-90% confluency, and growth medium was changed as 2% FBS/DMEM every 24 h for 5-7 days.
(§3) Determination of GLUT4 and phospho-Akt (Ser^473)/Total Akt Proteins in Vitro: Differentiated C2C12 cells were serum starved in DMEM/BSA (2 h at 37° C.) prior to incubation either with test compounds (TT at 1, 5, 10, and 25 μg/mL) or with vehicle (DMSO containing saline, final concentration of DMSO=0.2%) for 30 min or with 100 nM insulin for 25 min.
(§4) Following treatment, cells were washed three times with ice-cold PBS and separated into two portions. A portion of the cells was subsequently lysed in RIPA buffer (50 mM Tris-HCl, pH 8, 150 mM NaCl, 1% NP-40, 0.5% sodium deoxycholate, 0.1% SDS) supplemented with complete protease inhibitor cocktail (Roche) and phosphatase inhibitors and then centrifuged at 20000 g for […].
Supernatant protein was collected and stored at −20° C. Another portion of cells was homogenized with buffer (250 mmol/L sucrose, 50 mmol/L Tris, and 0.2 mmol/L edetic acid, pH 7.4) at 4° C., as previously described. The homogenates were centrifuged at 9000 g for 10 min (4° C.). The pellet was suspended with 0.5 mL of homogenization buffer and then centrifuged, repeated three times. The three supernatants were collected, mixed, and centrifuged at 190000 g for 60 min (4° C.). […]
(§5) Protein concentration was determined via BCA assay (Pierce). Equal amounts of protein were then diluted four times in SDS sample buffer and subjected to SDS-PAGE and were detected by Western blotting with antibodies specific for Akt, phosph-Akt Ser^473, and GLUT4. The density blotting was analyzed using Alpha Easy FCsoftware (Alpha Innotech Corp., Randburg, South Africa).

[4] = test system: PEPCK; test: Semiquantitative RT-PCR, liver tissue: PEPCK mRNA; assay type: in vivo, C57BL/6J mice; conditions: STZ-induced diabetic mice, 28 days, relative to CON group (so in the source)
Method: as §1

[5] = test system: CPT1a; test: Semiquantitative RT-PCR, liver tissue: CPT1a mRNA; assay type: in vivo, C57BL/6J mice; conditions: STZ-induced diabetic mice; TT oral (10, 20, 40 mg/kg/day groups, dose not given)
Method: as §1

[6] = test system: FAS; test: Western blotting: FAS in liver and adipose tissue of mice; conditions: STZ-induced diabetic mice, 28 days
Method: as §6, §7, §8

[7] = test system: AMPK; test: Western blotting: phospho-AMPK (Thr172)/total AMPK in skeletal muscle and liver of mice; conditions: STZ-induced diabetic mice, 28 days
Method: as §6, §7, §8

[8] = test system: PPARγ; test: Western blotting: PPARγ in liver and adipose tissue of mice; conditions: STZ-induced diabetic mice, 28 days
Method: as §6, §7, §8

[9] = test system: PPARα; test: Western blotting: PPARα in liver of mice; conditions: STZ-induced diabetic mice, 28 days
Method: as §6, §7, §8

[10] = test system: DGAT2; test: Semiquantitative RT-PCR, liver tissue: DGAT2 mRNA; assay type: in vivo, C57BL/6J mice; conditions: STZ-induced diabetic mice, 28 days, relative to CON group (so in the source)
Method: as §1

[11] = test system: STZ-induced diabetic mice; test: Histology of epididymal WAT and liver tissue in STZ-induced diabetic mice; assay type: in vivo, C57BL/6J mice; conditions: 28 days
Description: Parts of EWAT and liver tissue specimens were investigated as previously described.^31,32 Microscopic images were taken using a microscope (Olympus BX51, BX51, Olympus, Tokyo, Japan).

[12] = test system: PPARα; test: Semiquantitative RT-PCR, liver tissue: PPARα mRNA; assay type: in vivo, C57BL/6J mice; conditions: STZ-induced diabetic mice, 28 days
Method: as §1

[13] = test system: GLUT4; test: GLUT4 protein expression in C2C12 myotube cells (Western blot); assay type: cell-based; conditions: 30 min
Method: as §2, §3, §4
Supernatant protein was collected and stored at −20° C. Another portion of cells was homogenized with buffer (250 mmol/L sucrose, 50 mmol/L Tris, and 0.2 mmol/L edetic acid, pH 7.4) at 4° C., as previously described. The homogenates were centrifuged at 9000 g for 10 min (4° C.). The pellet was suspended with 0.5 mL of homogenization buffer and then centrifuged, repeated three times. The three supernatants were collected, mixed, and centrifuged at 190000 g for 60 min (4° C.). The pellet was resuspended with 0.2 mL of homogenization buffer, stored at −20° C., and performed within membrane.
as §5

[14] = test system: STZ-induced diabetic mice; test: Tissue weight, body weight and food intake in STZ-induced diabetic mice; assay type: in vivo, C57BL/6J mice; conditions: 28 days
[15] = test system: G6 Pase; test: Semiquantitative RT-PCR, liver tissue: G6 Pase mRNA; assay type: in vivo, C57BL/6J mice; conditions: STZ-induced diabetic mice, 28 days, relative to CON group (so in the source)
Method: as §1

[16] = test system: SREBP2; test: Semiquantitative RT-PCR, liver tissue: SREBP2 mRNA; assay type: in vivo, C57BL/6J mice; conditions: STZ-induced diabetic mice; TT oral (10, 20, 40 mg/kg/day groups, dose not given)
Method: as §1

C=C(CC[C@@H](C(=O)O)[C@H]1CC[C@@]2(C)C3=CC[C@H]4C(C)(C)[C@@H](O)CC[C@]4(C)C3=CC[C@]12C)C(C)C [TT, dehydroeburicoic acid]
membrane expression levels of GLUT4 in skeletal muscle vs STZ group ([1]; TT 10 mg/kg/day oral): greater | membrane expression levels of GLUT4 in skeletal muscle vs STZ group ([1]; TT 20 mg/kg/day oral): greater | membrane expression levels of GLUT4 in skeletal muscle vs STZ group ([1]; TT 40 mg/kg/day oral): greater | mRNA levels of SREBP1c in liver ([2]; TT 10 mg/kg/day oral): decreased | mRNA levels of SREBP1c in liver ([2]; TT 20 mg/kg/day oral): decreased | mRNA levels of SREBP1c in liver ([2]; TT 40 mg/kg/day oral): decreased | levels of phospho-Akt (Ser473)/total Akt proteins vs CON group ([3]; TT 10 μg/mL): higher | levels of phospho-Akt (Ser473)/total Akt proteins vs CON group ([3]; TT 25 μg/mL): higher | mRNA levels of PEPCK in liver ([4]; TT 10 mg/kg/day oral): decreased | mRNA levels of PEPCK in liver ([4]; TT 20 mg/kg/day oral): decreased | mRNA levels of PEPCK in liver ([4]; TT 40 mg/kg/day oral): decreased | CPT1a mRNA levels in liver [5]: enhanced | expression levels of FAS in adipose tissue ([6]; TT 10 mg/kg/day oral): decreased | expression levels of FAS in the liver ([6]; TT 10 mg/kg/day oral): decreased | expression levels of FAS in adipose tissue ([6]; TT 20 mg/kg/day oral): decreased | expression levels of FAS in the liver ([6]; TT 20 mg/kg/day oral): decreased | expression levels of FAS in adipose tissue ([6]; TT 40 mg/kg/day oral): decreased | expression levels of FAS in the liver ([6]; TT 40 mg/kg/day oral): decreased | expression levels of phospho-AMPK/total AMPK in skeletal muscle ([7]; TT 10 mg/kg/day oral): increased | muscular expression levels of phospho-AMPK/total AMPK compared with the STZ group (second sentence) ([7]; TT 10 mg/kg/day oral): increased | expression levels of phospho-AMPK/total AMPK in skeletal muscle ([7]; TT 20 mg/kg/day oral): increased | muscular expression levels of phospho-AMPK/total AMPK compared with the STZ group (second sentence) ([7]; TT 20 mg/kg/day oral): increased | expression levels of phospho-AMPK/total AMPK in skeletal muscle ([7]; TT 40 mg/kg/day oral): increased | muscular expression levels of phospho-AMPK/total AMPK compared with the STZ group (second sentence) ([7]; TT 40 mg/kg/day oral): increased | expression levels of PPARγ in adipose tissue ([8]; TT 10 mg/kg/day oral): decreased | expression levels of PPARγ in the liver ([8]; TT 10 mg/kg/day oral): decreased | expression levels of PPARγ in adipose tissue ([8]; TT 20 mg/kg/day oral): decreased | expression levels of PPARγ in the liver ([8]; TT 20 mg/kg/day oral): decreased | expression levels of PPARγ in adipose tissue ([8]; TT 40 mg/kg/day oral): decreased | expression levels of PPARγ in the liver ([8]; TT 40 mg/kg/day oral): decreased | expression levels of PPARα in the liver ([9]; TT 10 mg/kg/day oral): increased | expression levels of PPARα in the liver ([9]; TT 20 mg/kg/day oral): increased | expression levels of PPARα in the liver ([9]; TT 40 mg/kg/day oral): increased | mRNA levels of DGAT2 in liver ([10]; TT 10 mg/kg/day oral): decreased | mRNA levels of DGAT2 in liver ([10]; TT 20 mg/kg/day oral): decreased | mRNA levels of DGAT2 in liver ([10]; TT 40 mg/kg/day oral): decreased | ballooning of hepatocyte (liver histology) ([11]; TT 10 mg/kg/day oral): no ballooning phenomenon | average area of adipocytes in epididymal WAT ([11]; TT 20 mg/kg/day oral): 5379.9±187.2 μm^2 | ballooning of hepatocyte (liver histology) ([11]; TT 20 mg/kg/day oral): no ballooning phenomenon | average area of adipocytes in epididymal WAT ([11]; TT 40 mg/kg/day oral): 4910.5±104.9 μm^2 | ballooning of hepatocyte (liver histology) ([11]; TT 40 mg/kg/day oral): no ballooning phenomenon | mRNA level of PPARα in liver ([12]; TT 10 mg/kg/day oral): increased | mRNA level of PPARα in liver ([12]; TT 20 mg/kg/day oral): increased | mRNA level of PPARα in liver ([12]; TT 40 mg/kg/day oral): increased | protein expressions of GLUT4 vs CON group ([13]; TT 1 μg/mL): higher | protein expressions of GLUT4 vs CON group ([13]; TT 5 μg/mL): higher | protein expressions of GLUT4 vs CON group ([13]; TT 10 μg/mL): higher | protein expressions of GLUT4 vs CON group ([13]; TT 25 μg/mL): higher | Tissue weight: BAT ([14]; TT 10 mg/kg/day oral): 0.296 ± 0.012 wt % | Tissue weight: EWAT ([14]; TT 10 mg/kg/day oral): 0.778 ± 0.063 wt % | Tissue weight: MWAT ([14]; TT 10 mg/kg/day oral): 0.562 ± 0.114 wt % | Tissue weight: RWAT ([14]; TT 10 mg/kg/day oral): 0.122 ± 0.029 wt % | Tissue weight: Visceral fat ([14]; TT 10 mg/kg/day oral): 0.900 ± 0.082 wt % | Tissue weight: BAT ([14]; TT 20 mg/kg/day oral): 0.323 ± 0.026 wt % | Tissue weight: EWAT ([14]; TT 20 mg/kg/day oral): 0.783 ± 0.087 wt % | Tissue weight: MWAT ([14]; TT 20 mg/kg/day oral): 0.709 ± 0.111 wt % | Tissue weight: RWAT ([14]; TT 20 mg/kg/day oral): 0.161 ± 0.031 wt % | Tissue weight: Visceral fat ([14]; TT 20 mg/kg/day oral): 0.944 ± 0.115 wt % | Tissue weight: EWAT ([14]; TT 40 mg/kg/day oral): 0.715 ± 0.068 wt % | Tissue weight: MWAT ([14]; TT 40 mg/kg/day oral): 0.720 ± 0.114 wt % | Tissue weight: RWAT ([14]; TT 40 mg/kg/day oral): 0.119 ± 0.014 wt % | Tissue weight: Visceral fat ([14]; TT 40 mg/kg/day oral): 0.834 ± 0.082 wt % | mRNA levels of G6 Pase in liver ([15]; TT 10 mg/kg/day oral): decreased | mRNA levels of G6 Pase in liver ([15]; TT 20 mg/kg/day oral): decreased | mRNA levels of G6 Pase in liver ([15]; TT 40 mg/kg/day oral): decreased | SREBP2 mRNA levels in liver [16]: decreased
